Measurements: ChEMBL document CHEMBL4184264, “Heterobicyclic inhibitors of transforming growth factor beta receptor I (TGFβRI)” (Bioorg Med Chem, 2018)

What was measured:
[1] = Inhibition of TGFbetaR1 in mink Mv1Lu cells assessed as TGFbeta-stimulated PSMAD2 phosphorylation preincubated for 1 hr followed by TGFbeta addition measured after 15 mins; format: cell-based, Neovison vison; settings: Neogale vison
[2] = Metabolic stability in human liver microsomes assessed as compound remaining by LC-MS/MS analysis; format: ADME, microsome
[3] = Metabolic stability in rat liver microsomes assessed as compound remaining by LC-MS/MS analysis; format: ADME, microsome
[4] = Metabolic stability in mouse liver microsomes assessed as compound remaining by LC-MS/MS analysis; format: ADME, microsome
[5] = molecular target: TGF-beta receptor type-2 (Homo sapiens, UniProt P37173); assay: Inhibition of wild type His-tagged TGFbetaR2 (unknown origin) after 1 hr by HTRF assay
Chain of TGF-beta receptor type-2 (P37173 whole entry): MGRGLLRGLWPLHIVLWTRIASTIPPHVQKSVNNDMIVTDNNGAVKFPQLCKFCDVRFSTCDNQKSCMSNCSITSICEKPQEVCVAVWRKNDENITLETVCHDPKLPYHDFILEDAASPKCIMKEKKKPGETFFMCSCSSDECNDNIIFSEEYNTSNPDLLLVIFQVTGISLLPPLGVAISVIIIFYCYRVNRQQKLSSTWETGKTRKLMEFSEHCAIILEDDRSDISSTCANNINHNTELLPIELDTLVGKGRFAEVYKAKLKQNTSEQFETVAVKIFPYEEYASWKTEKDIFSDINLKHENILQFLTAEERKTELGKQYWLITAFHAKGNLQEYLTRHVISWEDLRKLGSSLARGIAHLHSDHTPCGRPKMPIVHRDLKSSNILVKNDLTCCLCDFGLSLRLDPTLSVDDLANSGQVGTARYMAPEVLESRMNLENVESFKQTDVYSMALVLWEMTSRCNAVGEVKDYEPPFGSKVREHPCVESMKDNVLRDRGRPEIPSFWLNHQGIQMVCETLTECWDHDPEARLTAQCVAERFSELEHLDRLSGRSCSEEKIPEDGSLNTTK

[6] = Solubility of the compound in DMSO; format: physicochemical
[7] = tested on: Mus musculus; assay: In vivo inhibition of TGFbetaR1 in po dosed BALB/c mouse implanted with mouse 4T1 cells assessed as reduction in phosphorylated PSMAD levels after 7 hrs; format: functional, organism-based

CC(=O)Nc1cc(Nc2nc(-c3cccc(C(F)(F)F)n3)nc3[nH]cnc23)ccn1
IC50 [1]: 130 nM
Stability [2]: 85%
Stability [3]: 77%
Stability [4]: 59%

Fc1cnccc1Nc1nc(-c2cccc(C(F)(F)F)n2)nc2[nH]ccc12
IC50 [1]: 47 nM
Stability [2]: 36%
Stability [4]: 28%

FC(F)(F)c1cccc(-c2nc(Nc3ccncc3)c3cccn3n2)n1
IC50 [1]: 710 nM
Stability [2]: 24%
Stability [3]: 48%
Stability [4]: 13%

Fc1cnccc1Nc1nc(-c2ccccn2)nn2cccc12
IC50 [1]: 500 nM
Stability [2]: 54%
Stability [3]: 54%
Stability [4]: 19%

Cc1cccc(-c2nc(Nc3ccncc3F)c3nc[nH]c3n2)n1
IC50 [1]: 150 nM
Stability [2]: 38%
Stability [3]: 47%
Stability [4]: 4%

O=C(CN1CCN(CCO)CC1)Nc1cc(Nc2nc(-c3cccc(C(F)(F)F)n3)nn3cccc23)ccn1
IC50 [1]: 220 nM
Stability [2]: 70%
Stability [4]: 77%

N[C@H]1CCN(Cc2ccn3nc(-c4ccccn4)nc(Nc4ccncc4F)c23)C[C@@H]1O
IC50 [1]: 390 nM
Stability [2]: 85%
Stability [3]: 90%
Stability [4]: 82%

Cc1cccc(-c2nc(Nc3ccncc3F)c3cc[nH]c3n2)n1
IC50 [1]: 24 nM
Stability [2]: 25%
Stability [3]: 38%
Stability [4]: 2%

Cc1cccc(-c2nc(Nc3ccncc3F)c3cccn3n2)n1
IC50 [1]: 180 nM
Stability [2]: 11%
Stability [3]: 35%
Stability [4]: 6%

Cc1cccc(-c2nc(Nc3ccncc3C(=O)NC(C)C)c3cccn3n2)n1
IC50 [1]: > 10000 nM
Stability [2]: 65%
Stability [3]: 67%
Stability [4]: 26%

N[C@@H]1CCN(Cc2ccn3nc(-c4ccccn4)nc(Nc4ccncc4F)c23)C[C@H]1O
IC50 [1]: 310 nM
Stability [2]: 93%
Stability [3]: 92%
Stability [4]: 100%

CC(=O)Nc1cc(Nc2nc(-c3cccc(C(F)(F)F)n3)nc3[nH]ccc23)ccn1
IC50 [1]: 43 nM
Stability [2]: 81%
Stability [3]: 80%
Stability [4]: 27%

N[C@H]1CC[C@@H](NCc2ccn3nc(-c4ccccn4)nc(Nc4ccncc4F)c23)CC1
IC50 [1]: 76 nM
Stability [2]: 86%
Stability [3]: 72%
Stability [4]: 48%

Cc1cccc(-c2nn3c(c2-c2ccnc4ccc(C(N)=O)cc24)CCC3)n1 [GALUNISERTIB]
IC50 [5]: 1300 nM

Cc1cccc(-c2nc(Nc3ccncc3)c3cccn3n2)n1
IC50 [1]: 99 nM
Stability [2]: 11%
solubility [6]: Soluble
Stability [3]: 28%
Stability [4]: 1%

Cc1cccc(-c2nc(Nc3c(F)cncc3F)c3cccn3n2)n1
IC50 [1]: 1200 nM
Stability [2]: 15%
Stability [3]: 39%
Stability [4]: 7%

COc1cccc(-c2nc(Nc3ccncc3)c3cccn3n2)n1
IC50 [1]: 3900 nM
Stability [2]: 12%
Stability [3]: 36%
Stability [4]: 2%

CC(=O)Nc1cc(Nc2nc(-c3cccc(C(F)(F)F)n3)nn3cccc23)ccn1
IC50 [1]: 180 nM
Activity [7]: Dose-dependent effect
Stability [2]: 75%
Stability [3]: 35%
Stability [4]: 49%

c1ccc(-c2nn3c(c2-c2ccnc4cc(OCCN5CCOCC5)ccc24)CCC3)nc1
IC50 [1]: 750 nM
Stability [2]: 58%
IC50 [5]: 190 nM
Stability [3]: 46%
Stability [4]: 36%

Cc1cccc(-c2nc(Nc3ccnc4ccccc34)c3cccn3n2)n1
solubility [6]: Insoluble

c1ccc(-c2nc(Nc3ccncc3)c3cccn3n2)nc1
IC50 [1]: 350 nM
Stability [2]: 33%
Stability [3]: 33%
Stability [4]: 1%

CC(=O)Nc1cc(Nc2nc(-c3cccc(C(F)(F)F)n3)nn3cccc23)c(F)cn1
Stability [2]: 78%
Stability [3]: 68%
Stability [4]: 66%
